How the values were obtained:
[1] = target: T1, Solute carrier family 22 member 1 (Homo sapiens, UniProt O15245); experiment: (§1) TP_TRANSPORTER: inhibition of uptake of 0.1 uM MPP+ in OCT1-expressing 293 cells; type: functional, cell-based, HEK293
T1 sequence (O15245 whole entry): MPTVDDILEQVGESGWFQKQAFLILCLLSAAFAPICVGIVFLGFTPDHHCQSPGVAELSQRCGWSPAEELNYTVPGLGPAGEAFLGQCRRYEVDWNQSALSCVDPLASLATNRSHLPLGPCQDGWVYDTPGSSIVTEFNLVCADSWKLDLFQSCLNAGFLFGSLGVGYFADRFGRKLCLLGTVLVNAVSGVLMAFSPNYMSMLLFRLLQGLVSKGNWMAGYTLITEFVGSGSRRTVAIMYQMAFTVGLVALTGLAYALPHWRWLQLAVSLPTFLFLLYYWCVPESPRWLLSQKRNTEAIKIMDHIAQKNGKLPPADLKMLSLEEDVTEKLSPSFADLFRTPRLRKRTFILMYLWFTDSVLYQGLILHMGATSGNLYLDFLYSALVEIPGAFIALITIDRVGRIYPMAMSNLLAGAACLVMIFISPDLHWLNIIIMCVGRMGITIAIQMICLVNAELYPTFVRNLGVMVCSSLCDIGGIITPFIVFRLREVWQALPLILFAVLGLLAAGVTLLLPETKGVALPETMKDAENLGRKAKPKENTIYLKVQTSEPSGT

[2] = target: T2, Solute carrier family 22 member 1 (Rattus norvegicus, UniProt Q63089); experiment: as §1; type: functional, cell-based, HEK293
T2 sequence (Q63089 whole entry): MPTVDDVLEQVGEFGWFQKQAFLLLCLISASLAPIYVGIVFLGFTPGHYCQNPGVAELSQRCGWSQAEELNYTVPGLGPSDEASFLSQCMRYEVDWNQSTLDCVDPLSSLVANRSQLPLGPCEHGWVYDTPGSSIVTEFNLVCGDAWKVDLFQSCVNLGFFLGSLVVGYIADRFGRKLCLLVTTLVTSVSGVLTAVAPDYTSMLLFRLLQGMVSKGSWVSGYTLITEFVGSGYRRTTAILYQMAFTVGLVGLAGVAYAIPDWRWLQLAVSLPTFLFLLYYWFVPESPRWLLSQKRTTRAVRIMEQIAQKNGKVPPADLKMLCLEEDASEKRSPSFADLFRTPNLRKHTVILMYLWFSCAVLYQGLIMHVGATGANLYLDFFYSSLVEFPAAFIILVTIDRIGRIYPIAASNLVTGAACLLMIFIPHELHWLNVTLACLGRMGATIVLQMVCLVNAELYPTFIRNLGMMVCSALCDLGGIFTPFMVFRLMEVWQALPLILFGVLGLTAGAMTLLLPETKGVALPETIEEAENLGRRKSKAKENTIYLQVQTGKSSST

[3] = target: T1, Solute carrier family 22 member 1; experiment: (§2) TP_TRANSPORTER: uptake in OCT1-expressing 293 cells; type: functional, cell-based; settings: hek293
[4] = target: T2, Solute carrier family 22 member 1; experiment: as §2; type: functional, cell-based; settings: human, hek293
[5] = target: T3, Solute carrier family 22 member 3 (Rattus norvegicus, UniProt O88446); experiment: (§3) TP_TRANSPORTER: uptake in OCT3-expressing 293 cells; type: functional, cell-based; settings: human, hek293
T3 sequence (O88446 whole entry): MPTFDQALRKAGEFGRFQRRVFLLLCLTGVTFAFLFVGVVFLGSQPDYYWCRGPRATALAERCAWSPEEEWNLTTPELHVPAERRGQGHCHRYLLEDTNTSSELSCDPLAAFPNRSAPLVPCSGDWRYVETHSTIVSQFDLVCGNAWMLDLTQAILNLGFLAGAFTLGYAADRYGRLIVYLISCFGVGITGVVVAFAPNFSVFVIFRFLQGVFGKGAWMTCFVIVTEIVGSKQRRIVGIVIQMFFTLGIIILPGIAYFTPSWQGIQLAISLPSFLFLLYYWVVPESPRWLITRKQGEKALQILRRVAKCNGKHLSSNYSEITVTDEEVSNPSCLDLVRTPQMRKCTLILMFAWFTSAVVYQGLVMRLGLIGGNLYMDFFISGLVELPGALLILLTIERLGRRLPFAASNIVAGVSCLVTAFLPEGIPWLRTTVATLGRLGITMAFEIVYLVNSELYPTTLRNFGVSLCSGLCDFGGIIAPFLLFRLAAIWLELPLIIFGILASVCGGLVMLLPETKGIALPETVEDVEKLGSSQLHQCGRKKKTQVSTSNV

[6] = target: T4, Solute carrier family 22 member 2 (Rattus norvegicus, UniProt Q9R0W2); experiment: (§4) TP_TRANSPORTER: uptake in OCT2-expressing 293 cells; type: functional, cell-based; settings: human, hek293
T4 sequence (Q9R0W2 whole entry): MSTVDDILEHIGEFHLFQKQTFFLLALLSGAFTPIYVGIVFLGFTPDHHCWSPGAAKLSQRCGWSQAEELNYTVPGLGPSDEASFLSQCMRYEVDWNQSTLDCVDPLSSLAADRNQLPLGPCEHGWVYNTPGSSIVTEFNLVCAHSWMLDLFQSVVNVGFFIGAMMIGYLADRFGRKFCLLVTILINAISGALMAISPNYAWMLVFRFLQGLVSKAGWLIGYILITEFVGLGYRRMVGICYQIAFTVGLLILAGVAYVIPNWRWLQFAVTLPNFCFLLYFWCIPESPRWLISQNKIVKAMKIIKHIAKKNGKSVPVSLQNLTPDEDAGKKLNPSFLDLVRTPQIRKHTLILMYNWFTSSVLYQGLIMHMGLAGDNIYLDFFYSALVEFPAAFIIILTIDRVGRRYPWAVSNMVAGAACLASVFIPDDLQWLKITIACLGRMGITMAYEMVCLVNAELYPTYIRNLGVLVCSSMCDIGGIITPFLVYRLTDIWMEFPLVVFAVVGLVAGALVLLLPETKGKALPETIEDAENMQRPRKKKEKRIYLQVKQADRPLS

[7] = target: T5, Solute carrier family 22 member 2 (Homo sapiens, UniProt O15244); experiment: as §4; type: functional, cell-based; settings: hek293
T5 sequence (O15244 whole entry): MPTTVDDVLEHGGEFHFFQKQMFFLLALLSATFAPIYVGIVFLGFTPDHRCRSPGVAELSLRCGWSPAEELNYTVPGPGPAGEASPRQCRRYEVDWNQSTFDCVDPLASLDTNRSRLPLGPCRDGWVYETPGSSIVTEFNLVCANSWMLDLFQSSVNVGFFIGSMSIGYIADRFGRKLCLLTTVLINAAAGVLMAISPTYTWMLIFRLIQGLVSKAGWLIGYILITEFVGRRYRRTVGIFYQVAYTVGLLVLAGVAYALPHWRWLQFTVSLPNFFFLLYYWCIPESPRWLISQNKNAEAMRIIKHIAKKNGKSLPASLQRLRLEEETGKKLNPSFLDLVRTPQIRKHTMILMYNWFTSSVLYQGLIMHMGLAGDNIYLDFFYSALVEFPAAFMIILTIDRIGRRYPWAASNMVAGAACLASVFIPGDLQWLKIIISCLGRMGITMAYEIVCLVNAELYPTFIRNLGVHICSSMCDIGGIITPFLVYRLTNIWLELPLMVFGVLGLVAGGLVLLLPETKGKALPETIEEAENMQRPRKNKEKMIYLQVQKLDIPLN

[8] = substrate: N=C(N)NCCCCN; experiment: as §4; type: functional, cell-based, HEK293
[9] = substrate: N=C(N)NCCCCN; experiment: as §3; type: functional, cell-based, HEK293

For `N=C(N)NCCCCN` [AGMATINE], the Ki [1] was 24 mM, the Ki [2] was 8.6 mM and the Activity [3] was “substrate []”. The Activity [4] was “substrate []”.

`C[n+]1ccc(-c2ccccc2)cc1` was tested, and the Activity [5] was “substrate []”, the Activity [6] was “substrate []” and the Activity [7] was 7.8 µM. The Activity [3] was 32 µM and the Activity [4] was “substrate []”.

B1: Solute carrier family 22 member 2 (Rattus norvegicus) (protein)
chain: T4 sequence (Q9R0W2 whole entry)
B1 was tested, and the Km [8] was 950 µM.

B2: Solute carrier family 22 member 3 (Rattus norvegicus) (protein)
chain: T3 sequence (O88446 whole entry)
For B2, the Km [9] was 900 µM.

B3: Solute carrier family 22 member 2 (Homo sapiens) (protein)
chain: T5 sequence (O15244 whole entry)
In the case of B3, the Km [8] is reported as 1400 µM.

B4: Solute carrier family 22 member 3 (Homo sapiens) (protein)
chain: MPSFDEALQRVGEFGRFQRRVFLLLCLTGVTFAFLFVGVVFLGTQPDHYWCRGPSAAALAERCGWSPEEEWNRTAPASRGPEPPERRGRCQRYLLEAANDSASATSALSCADPLAAFPNRSAPLVPCRGGWRYAQAHSTIVSEFDLVCVNAWMLDLTQAILNLGFLTGAFTLGYAADRYGRIVIYLLSCLGVGVTGVVVAFAPNFPVFVIFRFLQGVFGKGTWMTCYVIVTEIVGSKQRRIVGIVIQMFFTLGIIILPGIAYFIPNWQGIQLAITLPSFLFLLYYWVVPESPRWLITRKKGDKALQILRRIAKCNGKYLSSNYSEITVTDEEVSNPSFLDLVRTPQMRKCTLILMFAWFTSAVVYQGLVMRLGIIGGNLYIDFFISGVVELPGALLILLTIERLGRRLPFAASNIVAGVACLVTAFLPEGIAWLRTTVATLGRLGITMAFEIVYLVNSELYPTTLRNFGVSLCSGLCDFGGIIAPFLLFRLAAVWLELPLIIFGILASICGGLVMLLPETKGIALPETVDDVEKLGSPHSCKCGRNKKTPVSRSHL
B4 was tested, and the Km [9] was 2500 µM.

Reference: ChEMBL document CHEMBL2073758, “Agmatine is efficiently transported by non-neuronal monoamine transporters extraneuronal monoamine transporter (EMT) and organic cation transporter 2 (OCT2)” (J Pharmacol Exp Ther, 2003)
